Data set [1] relates to PLD activity in 786-O cells. Briefly: PLD activity in 786-O cells. It is filed as cell-based, human. The following applies: no activated Ras. From the text:
The PLD activity elevated in response to stress in the MDA-MB-231 cells was dependent on Ras in the MDA-MB-231, and also in the Calu1, and T24 cancer cells (Shi et al., “Elevated Phospholipase D Activity in Human Cancer Cells with Activating Ras Mutations Provides Survival Signal,” Cancer Lett. 258:268-75 (2007), which is hereby incorporated by reference in its entirety). […] This is interesting in that there is an activated K-Ras gene in the MDA-MB-231 cells. Similarly, there are activating mutations to Ras genes in both the Calu1 and T24 cells. It was recently reported that the PLD activity in the T24 cells, where H-Ras is activated, is dependent on the expression of H-Ras; and the PLD activity in the Calu-1 cells, where K-Ras is activated, is dependent on the expression of K-Ras (Shi et al., “Elevated Phospholipase D Activity in Human Cancer Cells with Activating Ras Mutations Provides Survival Signal,” Cancer Lett. 258:268-75 (2007), which is hereby incorporated by reference in its entirety). […] However, it is also possible that the increased GTP bound Ras represents activation of the non-mutated Ras—either the Ras protein encoded by the non-mutated wild type allele or other Ras isoforms. In the case of the MDA-MD-231 that would mean that H-Ras was being activated or the wild type K-Ras encoded by the non-mutant allele. […]

In data set [2] the test system is HIF2α. Kind of data set: HIF2α expression in 786-O cells (Western blot). It is filed as cell-based, human. Particulars: 0.5% serum, 4 hr, honokiol 20 μM, 1-BtOH 0.8%.
Procedure: In FIG. 15B, 786-O cells were plated and then shifted to media containing 0.5% serum 24 hr later. 18 hr later, the cells were treated with 1-Bt0H (0.8%), honokiol (Hon) (20 μM), and t-BtOH (0.8%) as indicated. Cell lysates were prepared 4 hr later and examined for HIF2α and actin expression by Western lot analysis. The experiment shown is representative of two independent experiments.
Extraction of proteins from cultured cells and Western blot analysis of extracted proteins was performed using the ECL system (Amersham) as described previously (Chen et al., “Alternative Phospholipase D/mTOR Survival Signal in Human Breast Cancer Cells,” Oncogene 24:672-9 (2005), which is hereby incorporated by reference in its entirety).
The effect of honokiol on HIF2α expression was examined in these cells.
The conditions of data set [3]: mouse models, high concentrations; cited from earlier work.
Data set [4] deals with T1, PLD2 (Homo sapiens, UniProt O14939).
T1 construct: made in house
T1 sequence (O14939 whole entry): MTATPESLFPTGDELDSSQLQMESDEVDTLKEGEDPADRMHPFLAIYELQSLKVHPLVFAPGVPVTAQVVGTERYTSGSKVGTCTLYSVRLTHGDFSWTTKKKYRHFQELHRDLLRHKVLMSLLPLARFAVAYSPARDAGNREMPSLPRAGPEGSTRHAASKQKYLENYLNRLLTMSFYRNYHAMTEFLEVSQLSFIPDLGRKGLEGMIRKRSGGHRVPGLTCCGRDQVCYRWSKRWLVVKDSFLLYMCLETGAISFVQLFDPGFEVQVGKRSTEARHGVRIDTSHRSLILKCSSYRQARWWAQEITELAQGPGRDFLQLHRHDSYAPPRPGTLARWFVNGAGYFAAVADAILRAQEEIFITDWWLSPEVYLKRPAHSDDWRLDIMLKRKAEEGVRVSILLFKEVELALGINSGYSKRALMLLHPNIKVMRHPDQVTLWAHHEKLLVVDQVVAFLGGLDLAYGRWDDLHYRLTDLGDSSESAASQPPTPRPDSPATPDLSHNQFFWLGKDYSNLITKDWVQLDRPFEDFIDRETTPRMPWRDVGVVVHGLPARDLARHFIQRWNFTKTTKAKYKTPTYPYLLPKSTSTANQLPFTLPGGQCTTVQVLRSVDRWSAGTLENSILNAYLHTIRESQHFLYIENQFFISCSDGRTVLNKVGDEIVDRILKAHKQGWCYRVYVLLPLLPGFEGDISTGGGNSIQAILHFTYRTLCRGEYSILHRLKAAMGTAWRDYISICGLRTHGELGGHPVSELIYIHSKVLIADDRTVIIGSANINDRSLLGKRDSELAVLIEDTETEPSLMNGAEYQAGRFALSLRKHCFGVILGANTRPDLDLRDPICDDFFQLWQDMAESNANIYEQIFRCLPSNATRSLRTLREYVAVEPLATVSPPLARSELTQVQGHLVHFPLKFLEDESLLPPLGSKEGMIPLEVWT
Briefly: In vitro PLD activity, exogenous substrate assay, PLD2. Particulars: purified recombinant PLD2, 30 min at 37° C. Format: biochemical. The procedure: In FIG. 13A, MDA-MB-231 cells were plated as in FIGS. 12A-C and then shifted to either 10% serum or 0.5% serum overnight as indicated. Honokiol (20 μM) or control ethanol was then added for 4 hr as indicated, at which time the cells were harvested and the levels of PBt were determined as in FIGS. 12A-C. The experiment shown is representative of at least three independent experiments. In FIG. 13B, the effect of honokiol on the activity of PLD isoforms was measured using exogenous substrate assay as described previously (Henage et al., “Kinetic Analysis of a Mammalian Phospholipase D: Allosteric Modulation by Monomeric GTPases, Protein Kinase C, and Polyphosphoinositides,” J. Biol. Chem. 281:3408-17 (2006), which is hereby incorporated by reference in its entirety). […] The amount of background was determined and subtracted using a bovine serum albumin standard. […]
For in vivo PLD activity, cells were plated in 60 mm culture dishes in DMEM with 10% serum at a density that would allow them to grow to about 80% confluence after 2 days, then cells were shifted to DMEM containing 0.5% or 10% serum as indicated in the figure legends overnight. […] Briefly, PLD activity was measured by the release of [methyl-^3H] choline from [choline-methyl-^3H]dipalmitoyl-phosphatidylcholine. […]

Regarding `C=CCc1ccc(O)c(-c2ccc(O)c(CC=C)c2)c1` [honokiol, Honokiol], in data set [1], the PLD activity entry is “blocks”. Moreover, the HIF2α expression entry in data set [2] is “suppresses”. The tolerability result in data set [3] is given as “well tolerated”. Besides, the “in vitro activity of PLD2” value in data set [4] is given as “no significant effect”.

The record behind these values is patent US20120301895A1, “METHODS OF MODULATING BINDING OF SON OF SEVENLESS TO PHOSPHATIDIC ACID AND IDENTIFYING COMPOUNDS THAT MODULATE SUCH BINDING” (THE RESEARCH FOUNDATION OF STATE UNIVERSITY OF NEW YORK, priority 2007, published 2012).
